Test results from patent publication US7033604B2, “Composition for topical administration” (Sucampo AG, priority 2001, dated 2006).
Marks after values point to notes of the source that are not given here.

Columns and labels:
[1] = tested on: Pseudomonas aeruginosa IID-1210; assay: Anti-microbial test: viable bacterial counts in wounded rabbit cornea inoculated with Pseudomonas aeruginosa; type: in vivo; conditions: for Colony forming units per gram of cornea Mean ± SE: cornea excised 4 hours after administration, Japanese white rabbits, 6 eyes
Procedure: Single colony isolate of Pseudomonas aeruginosa IID-1210 (provided by Department of Ophthalmology, Yokohama City University School of Medicine, Japan) on NAC agar plate was inoculated in 2 mL of heart infusion broth, and kept for overnight at 37° C. One hundred microliters of the overnight culture was inoculated in 10 mL of heart infusion broth, and then grown for about 12 hours at 37° C. with shaking. Twelve Japanese white rabbits (13 weeks old, Std: JW/CSK, Japan SLC, Inc.) were anesthetized by intravenous injection of pentobarbital sodium (25 mg/kg), and then topical anesthesia was made by instillation of 0.4% oxybuprocaine hydrochloride to both eyes. The corneal wound was produced bilaterally using a 6-mm trephine and 27-gauge needle according to the method described by Hatano H et al. (Japanese Review of Clinical Ophthalmology 79: 1153, 1985). Forty microliters of the bacterial suspension prepared above was instilled onto the wounded cornea twice (Day 1, 21:00). After bacterial inoculation, the rabbits were divided into 4 groups (three rabbits-six eyes/group). Fifty microliters of each test substance or vehicle was topically applied to both eyes of each animal once 12 hours after bacterial inoculation (Day 2, 9:00). […] Four hours after administration of test substances, the animals were sacrificed with an intravenous overdose of pentobarbital sodium, eyes were enucleated, and then corneas were excised using a 6-mm trephine. After weighing, each cornea was homogenized in 1 mL of sterile physiological saline. Aliquot (0.1 mL) of each homogenate was plated on NAC agar, and incubated for 24 hours at 37° C. The colonies were then counted. All quantitative cultures were run in triplicate, and the arithmetic mean of three measurements was determined for each cornea. Results were expressed as the number of organisms (determined by measures of colony forming units [CFU]) per gram of corneal weight.

[2] = tested on: Experimental Pseudomonas keratitis; assay: Anti-inflammatory test: slit lamp scoring of conjunctival and corneal inflammation in experimental Pseudomonas keratitis; type: in vivo, Japanese white rabbits; conditions: for Score (conjunctiva) Mean ± SE: conjunctival inflammation at 48 hours after bacterial inoculation, sum of scores; for Score (conjunctiva) Mean ± SE / Score (cornea) Mean ± SE: 6 eyes; for Score (cornea) Mean ± SE: corneal inflammation at 60 hours after bacterial inoculation, sum of corneal opacity (0–8) and corneal ulcer (0–3)
Procedure: Experimental Pseudomonas keratitis was induced for 12 Japanese white rabbits (13 weeks old, Std: JW/CSK) as described in Test Experiment 1. After bacterial inoculation, the rabbits were divided into 4 groups (three rabbits-six eyes/group). Fifty microliters of each test substance or vehicle was topically applied to both eyes of each animal 4 times a day at intervals of 4 hours beginning 12 hours after the bacterial inoculation. The test substance and vehicle were the same as those used in Test Example 1. Rabbit eyes were examined with a slit lamp biomicroscope, and severity of conjunctival inflammation at 48 hours after bacterial inoculation and corneal inflammation at 60 hours after bacterial inoculation were evaluated by assigning a numerical value to the following signs based on the method described by Kuriyama H et al. Corneal inflammation was evaluated by sums of the scores of corneal opacity (score 0–8) and corneal ulcer (score 0–3). Conjunctival inflammation was evaluated by sums of the scores of redness of palpebral conjunctival inflammation (score 0–4), edema of palpebral conjunctiva (score 0–4), nictitating membrane status (score 0–3) and discharge (score 0–3).

[3] = 0.06% FK-506, 50 microliters topically 4 times a day from 12 hours after inoculation
[4] = 0.3% ofloxacin, 50 microliters topically 4 times a day from 12 hours after inoculation

Structure (SMILES) | Colony forming units per gram of cornea Mean ± SE ([1]; 0.06% FK-506, 50 microliters topically to both eyes once 12 hours after bacterial inoculation) | Effect on viable Pseudomonas counts (in words) ([1]; 0.06% FK-506, single topical application, compared with vehicle treatment) | Effect on conjunctival inflammation (in words) ([2]; 0.06% FK-506, 4 times a day, 48 hours after inoculation) | Effect on corneal inflammation (in words) ([2]; 0.06% FK-506, 4 times a day, 60 hours after inoculation) | Score (conjunctiva) Mean ± SE [2, 3] | Score (cornea) Mean ± SE [2, 3] | Colony forming units per gram of cornea Mean ± SE ([1]; 0.3% ofloxacin, 50 microliters topically to both eyes once 12 hours after bacterial inoculation) | Score (conjunctiva) Mean ± SE [2, 4] | Score (cornea) Mean ± SE [2, 4]
C=CCC1/C=C(\C)CC(C)CC(OC)C2OC(O)(C(=O)C(=O)N3CCCCC3C(=O)OC(/C(C)=C/C3CCC(O)C(OC)C3)C(C)C(O)CC1=O)C(C)CC2OC (stereo not drawn) [FK-506, 17-allyl-1,14-dihydroxy-12-[2-(4-hydroxy-3-methoxycyclohexyl)-1-methylvinyl]-23,25-dimethoxy-13,19,21,27-tetramethyl-11,28-dioxa-4-azatricyclo [22.3.1.0^4,9]octacos-18-ene-2,3,10,16-tetraone] | 31225 ± 7204 Colony forming units per gram of cornea | decreased the viable Pseudomonas counts as compared with vehicle treatment, but not significantly | tended to decrease the conjunctival inflammation | tended to decrease the corneal inflammation | 6.7 ± 0.4 | 6.0 ± 0.0 | – | – | –
CC1COc2c(N3CCN(C)CC3)c(F)cc3c(=O)c(C(=O)O)cn1c23 (stereo not drawn) [ofloxacin] | – | – | – | – | – | – | 0^a),b) Colony forming units per gram of cornea | 6.0 ± 0.5 | 2.1 ± 0.4^a)
